Results: patent EP0087750B2, “Amino acid preparations containing glutaminic residues” (Kabi Pharmacia GmbH, priority 1982, dated 1994)
Values after ≈ are worked out from the molar mass of the structure shown. Residues, ends and D or L forms follow the SMILES beside them.

Columns and labels:
physchem = format: physicochemical; conditions: water
From the text: (§1) Es wurde nun erkannt, daß das Glutamin als an der α-Aminogruppe durch α-Aminoacylreste substituiertes Derivat, d. h. in Form der Tri- oder Dipeptide des Glutamins dem Organismus, insbesondere durch Infusionslösungen, zugeführt werden kann, ohne Gefahr der Bildung des toxischen Cyclisierungsprodukts. Diese Di- und Tripeptide des Glutamins mit anderen Aminosäuren, wie Glycin, Alanin, Leucin, Isoleucin oder Valin, sind sehr leicht wasserlöslich, so daß sie gegebenenfalls in relativ hoher Konzentration in den Infusionslösungen angewendet werden können, wobei gleichzeitig dem Organismus auch andere Aminosäuren zugeführt werden, ohne daß dadurch osmotische Problem auftreten. Die Löslichkeit beispielsweise des Gly-Ala-Gln beträgt 680 g/L H₂O, während die freien Aminosäuren eine geringere Löslichkeit besitzen: […]: 225 g/L H₂O; Alanin: 158 g/L H₂O und Glutamin: […] H₂O.

[1] = system: Hydrolasen in den Geweben des Organismus; conditions: in vivo, cited from earlier work
Solubility in water = format: physicochemical
From the text: as §1

Q: Which solubility (physchem) does the source give for NC(=O)CC[C@H](N)C(=O)O [Glutamin] here?
A: 325 mg/mL (≈ 2220 mM)

Q: For C[C@H](N)C(=O)O [Alanin], which solubility (physchem) is on record?
A: 158 mg/mL (≈ 1770 mM)

Q: For Glycerin, which Löslichkeit (physchem) is on record?
A: 225 g/L H₂O

Q: Which “Elimination aus dem Plasma” value ([1]; iv) does the source give for Glycyl-leucin here?
A: schnell aus dem Plasma eliminiert

Q: What about the “Spaltung durch Hydrolasen in den Geweben” value [1] of the same compound?
A: gut gespalten

Q: With C[C@H](NC(=O)CN)C(=O)N[C@@H](CCC(N)=O)C(=O)O [Gly-Ala-Gln, Glycyl-L-alanyl-L-glutamin] (H-Gly-Ala-Gln-OH) as the compound, how does the Löslichkeit (Solubility in water) read?
A: 680 g/L H₂O
